Assay results taken from US20050112573A1, “Method of detecting toxic substance” (priority 2001, published 2005).

System: yeast genes (level of expressed mRNA)
Experiment: DNA chip analysis of expressed mRNA of yeast genes after 2 h culture with a toxic chemical substance
Format: cell-based, Saccharomyces cerevisiae S288C
Method: Yeast (Saccharomyces cerevtisiae S288C (α SUC2mal mel gap2 CUP1)) were cultured at 25° C. on YPD medium (yeast extract 1%, polypepton 2%, glucose 2%). One of toxic chemical substances was added to the cell at logarithmic growth phase, and the cell was further cultured for two hours. Cell was cultured without any chemical substance in the same condition, and was used as control. Concentrations of the chemical substances were defined to inhibit the growth of the yeast but not lead to death.
After the completion of cultivation, the culture was centrifuged to collect the cells. To the cells, sodium acetate buffer (50 mM sodium acetate, 10 mM EDTA, 1% SDS) was added, and the mixture was shaken at 65° C. for five minutes, followed by returning to room temperature, and obtaining the supernatant, which procedure was repeated two times. To the supernatant, ½ amount of a solution of phenol/chloroform was added, and the mixture was centrifuged to give a supernatant, which was added with an equal amount of chloroform, and the mixture was centrifuged to give a supernatant. To the supernatant, an equal amount of isopropanol containing 0.3 M sodium acetate was added, and the mixture was allowed to stand at room temperature for 30 minutes, after which the mixture was centrifuged to give a sediment of the whole RNAs. Seventy % ethanol was added to the sediment, and the mixture was again centrifuged to give a sediment, which was then dried and dissolved in water. mRNA was isolated from the whole RNAs as followings. In view of the fact that a poly A chain is attached to the 3′ terminus of mRNA, a polynucleotide having a poly T structure which was immobilized on the surface of latex beads was used to trap the mRNA, and then the mRNA was washed and eluted with spine column (Oligotex-dT30<Super>mRNA Purification Kit, Takara). Reverse transcription of the mRNA was conducted with a reverse transcriptase (Super Script II Reverse Transcriptase; catalogue No. 18064-014, GibcoBRL) using fluorescence-labeled nucleotides to give cDNAs that were introduced with Cy3-dUTP or Cy5-dUTP during the reverse transcription.
The labeled cDNAs were dissolved in TE buffer (10 mM Tris-HCl/1 mM EDTA, pH8.0), and the solution was dropped on the DNA chip containing the whole genes of yeast (DNA Chip Research Inc. Japan) so that the cDNAs were hybridized on the DNA chip at 65° C. for over 12 hours. The fluoresces intensity of the DNA chip was read with a scanner, and the ratio relative to the fluorescence intensity resulting from the absence of chemical substance was estimated as the following, which is shown in Tables 1 to 9: [formula]
In the Tables, “Intensity” indicated in the rightmost column is a value of the level of expressed mRNA of each gene in control cells as divided by the average level of the expressions of the whole genes.

Compound: CCCCC[C@H](O)CC(=O)CCc1ccc(O)c(OC)c1 [(13), gingerol]
- The level of expressed mRNA in the presence of chemical substance/absence: YDR109C (gene YDR109C): 1.4
- The level of expressed mRNA in the presence of chemical substance/absence: YDR128W (gene YDR128W): 1.1
- The level of expressed mRNA in the presence of chemical substance/absence: YDR133C (gene YDR133C): 0.1
- The level of expressed mRNA in the presence of chemical substance/absence: YDR140W (gene YDR140W): 2.0
- The level of expressed mRNA in the presence of chemical substance/absence: YDR221W (gene YDR221W): 1.0
- The level of expressed mRNA in the presence of chemical substance/absence: YDR250C (gene YDR250C): 1.2
- The level of expressed mRNA in the presence of chemical substance/absence: YDR271C (gene YDR271C): 1.5
- The level of expressed mRNA in the presence of chemical substance/absence: YDR278C (gene YDR278C): 0.7
- The level of expressed mRNA in the presence of chemical substance/absence: YDR281C (gene YDR281C): 0.7
- The level of expressed mRNA in the presence of chemical substance/absence: YDR316W (gene YDR316W): 0.6
- The level of expressed mRNA in the presence of chemical substance/absence: YDR338C (gene YDR338C): 1.3
- The level of expressed mRNA in the presence of chemical substance/absence: YDR366C (gene YDR366C): 0.8
- level of expressed mRNA in the presence of chemical substance/in its absence (gene YDR380W): 0.4
- level of expressed mRNA in the presence of chemical substance/in its absence (gene YDR410C): 1.2
- The level of expressed mRNA in the presence of chemical substance/absence: YDR421W (gene YDR421W): 0.6
- The level of expressed mRNA in the presence of chemical substance/absence: YDR425W (gene YDR425W): 1.4
- The level of expressed mRNA in the presence of chemical substance/absence: YDR485C (gene YDR485C): 1.2
- level of expressed mRNA in the presence of chemical substance/in its absence (gene YDR487C): 1.5
- level of expressed mRNA in the presence of chemical substance/in its absence (gene YDR502C): 1.2
- The level of expressed mRNA in the presence of chemical substance/absence: YDR504C (gene YDR504C): 2.2
- level of expressed mRNA in the presence of chemical substance/in its absence (gene YEL011W): 1.5
- level of expressed mRNA in the presence of chemical substance/in its absence (gene YEL020C): 1.2
- The level of expressed mRNA in the presence of chemical substance/absence: YEL044W (gene YEL044W): 1.3
- level of expressed mRNA in the presence of chemical substance/in its absence (gene YER026C): 1.9
- level of expressed mRNA in the presence of chemical substance/in its absence (gene YER069W): 1.4
- The level of expressed mRNA in the presence of chemical substance/absence: YER092W (gene YER092W): 1.2
- The level of expressed mRNA in the presence of chemical substance/absence: YER182W (gene YER182W): 0.9
- The level of expressed mRNA in the presence of chemical substance/absence: YFL042C (gene YFL042C): 1.7
- level of expressed mRNA in the presence of chemical substance/in its absence (gene YFR015C): 2.5
- The level of expressed mRNA in the presence of chemical substance/absence: YFR026C (gene YFR026C): 1.1
- The level of expressed mRNA in the presence of chemical substance/absence: YFR056C (gene YFR056C): 0.3
- level of expressed mRNA in the presence of chemical substance/in its absence (gene YGL001C): 1.0
- level of expressed mRNA in the presence of chemical substance/in its absence (gene YGL022W): 1.0
- level of expressed mRNA in the presence of chemical substance/in its absence (gene YGL039W): 1.5
- The level of expressed mRNA in the presence of chemical substance/absence: YGL041C (gene YGL041C): 1.0
- The level of expressed mRNA in the presence of chemical substance/absence: YGL045W (gene YGL045W): 1.3
- The level of expressed mRNA in the presence of chemical substance/absence: YGL057C (gene YGL057C): 1.3
- The level of expressed mRNA in the presence of chemical substance/absence: YGL088W (gene YGL088W): 0.7
- level of expressed mRNA in the presence of chemical substance/in its absence (gene YGL104C): 2.0
- level of expressed mRNA in the presence of chemical substance/in its absence (gene YGL134W): 0.7
- level of expressed mRNA in the presence of chemical substance/in its absence (gene YGL154C): 2.0
- The level of expressed mRNA in the presence of chemical substance/absence: YGL183C (gene YGL183C): 1.5
- level of expressed mRNA in the presence of chemical substance/in its absence (gene YGL209W): 1.9
- The level of expressed mRNA in the presence of chemical substance/absence: YGL223C (gene YGL223C): 1.7
- level of expressed mRNA in the presence of chemical substance/in its absence (gene YGL253W): 1.5
- The level of expressed mRNA in the presence of chemical substance/absence: YGR038W (gene YGR038W): 1.2
- level of expressed mRNA in the presence of chemical substance/in its absence (gene YGR060W): 0.6
- The level of expressed mRNA in the presence of chemical substance/absence: YGR139W (gene YGR139W): 0.4
- The level of expressed mRNA in the presence of chemical substance/absence: YGR156W (gene YGR156W): 1.8
- The level of expressed mRNA in the presence of chemical substance/absence: YGR198W (gene YGR198W): 1.3
- The level of expressed mRNA in the presence of chemical substance/absence: YGR210C (gene YGR210C): 1.0
- The level of expressed mRNA in the presence of chemical substance/absence: YGR211W (gene YGR211W): 0.8
- The level of expressed mRNA in the presence of chemical substance/absence: YGR237C (gene YGR237C): 1.6
- The level of expressed mRNA in the presence of chemical substance/absence: YGR243W (gene YGR243W): 1.1
- The level of expressed mRNA in the presence of chemical substance/absence: YGR250C (gene YGR250C): 1.7
- The level of expressed mRNA in the presence of chemical substance/absence: YGR266W (gene YGR266W): 1.1
- The level of expressed mRNA in the presence of chemical substance/absence: YGR277C (gene YGR277C): 1.6
